Ends that are not written are not given here.
Tested on: E-11 cells
Test: MTT cytotoxicity test on E-11 cells
Type: cell-based
Settings: 24 h at 25 °C, mean of n = 3, control = 100.0
Experimental: Synthetic peptides cytotoxicity on E − 11 cells was assessed using the MTT (Sigma) test with serial peptide dilutions (1000–4 µg/mL in L − 15 medium; n = 3; 24 h at 25 °C) as elsewhere (Cervera et al. [2024c]). Absorbance was measured at 570 nm (BMG Labtech); blanks lacked cells. Cell viability was calculated as the OD ratio of treated to untreated cells × 100, normalized at 690 nm.
Supplementary data S4: Cell viability (%) of E-11 cells after incubation with the synthetic peptides for 24 h. Data represent the mean ± SEM (n=3).

In the case of ALQATRGAVVAKWW-NH2 [Peptide P5], the “Viability (%) of E-11 cells, mean” value (peptide 0.00411 mg/mL) is reported as 126.6%, the “Viability (%) of E-11 cells, mean” value (peptide 0.01234 mg/mL) is reported as 116.7% and the “Viability (%) of E-11 cells, mean” value (peptide 0.03704 mg/mL) is reported as 116.4%. For the same substance, the “Viability (%) of E-11 cells, mean” value (peptide 0.11111 mg/mL) was 122.7%, the “Viability (%) of E-11 cells, mean” value (peptide 0.33333 mg/mL) was 104.3% and the “Viability (%) of E-11 cells, mean” value (peptide 1.00000 mg/mL) was 115.8%.

Source: paper PMC12374861, “Synthetic Peptides Suppress Nervous Necrosis Virus Absorption and Improve Survival Rates in European Sea Bass” (Marine Biotechnology (New York, N.y.), 2025)
